The data set is described as follows: gradient 5% acetonitrile 3 min, to 50% in 2 min, to 85% in 15 min, held 3 min, 100 µL/min. Conditions: column: Zorbax Extend-C18 2.1 x 50 mm; eluents: water / acetonitrile, 0.1% formic acid. The method in brief: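 Standards, all pure, were combined into mixtures of ~100 molecules and run at 100 μL/min on a Zorbax Extend-C18 column (2.1 × 50 mm, 1.8 μm) with water and acetonitrile, each containing 0.1% formic acid. A coupled quadrupole time-of-flight mass spectrometer operated in positive and negative ionization mode. Retention time values come from computationally picked adduct peaks, each inspected manually.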
As for `CCN1C(=O)NC(c2ccccc2C(F)(F)F)C2=C1CN(CCC(=O)NCCOC)C2=O` (centres undefined), the RP-LC retention time was 928 s.

`N#Cc1ccc(C(=O)NC2CCN(C(=O)C3CC3)C2)cc1` (centres undefined): the RP-LC retention time was 629 s.

As for `Cc1ccc(-c2cc(C(=O)N3CCC(NC(=O)C4CCCCC4)CC3)[nH]n2)c(C)c1`, the RP-LC retention time was 811 s.

The compound `CC(=O)N1c2ccc(S(=O)(=O)N3CCCCC3)cc2CC1C(=O)NCCCc1ccccc1` (centres undefined) showed an RP-LC retention time of 917 s.

Turning to `CCn1cc(-c2ccc(Cl)cc2)cc1C(=O)NCCOC`, the RP-LC retention time came to 954 s.

In turn, `CC(NC(=O)c1cn(C)c2ncccc12)c1ccccn1` (centres undefined) returned an RP-LC retention time of 552 s.

`CCCNc1cc(N2CCC(CCC(=O)Nc3ccccc3)CC2)ncn1` registered an RP-LC retention time of 704 s.

Compound `CC1OC(Oc2c(-c3cc(O)c(O)c(O)c3)oc3cc(O)cc(O)c3c2=O)C(O)C(O)C1O` (centres undefined) yielded an RP-LC retention time of 651 s.

In turn, `Cc1cccc2c(C(N)=O)cc(-c3ccccc3)nc12` yielded an RP-LC retention time of 904 s.

For the compound `O=C1COc2cc(Cl)ccc2N1Cc1nc(-c2ccc(F)c(Cl)c2)no1`, the RP-LC retention time was 1190 s.

`CC1=C(c2ccc(C)cc2)S(=O)(=O)N=C1N1CCCN(C(=O)c2ccccn2)CC1` displayed an RP-LC retention time of 758 s.

In turn, `CCOC(=O)c1nc(Nc2ccc(F)c(Cl)c2)c2ccccc2n1` showed an RP-LC retention time of 971 s.

Compound `Nc1nc(-c2nn(Cc3ccccc3F)c3ncccc23)ncc1C1CC1` yielded an RP-LC retention time of 720 s.

Compound `Cc1ccc(NC(=O)Cn2c(C)nc3c(sc4nc(-c5ccccc5)ccc43)c2=O)c(C)c1` showed an RP-LC retention time of 1090 s.

For the compound `COc1ccccc1NC(=O)C1CCN(S(=O)(=O)c2ccc3[nH]c(=O)ccc3c2)CC1`, the RP-LC retention time worked out at 734 s.

Consider `O=S(=O)(Cc1cccc(F)c1)NCCc1ccsc1`, for which the RP-LC retention time was determined as 852 s.

`COc1ccc(-c2nn3c(-c4ccc(N(C)C)cc4)nnc3s2)cc1` had an RP-LC retention time of 1120 s.

`CC(NC(=O)c1ccc2c(c1)nc1n2CCN(Cc2ccccc2)C1=O)c1cccnc1` (centres undefined) returned an RP-LC retention time of 616 s.

Take `CCNC(=O)NS(=O)(=O)c1sc(CC(C)C)cc1-c1ccc(Cn2c(-c3ccccc3)nc(OC)c2C=O)cc1`: the RP-LC retention time came to 1280 s.

`Cc1ccc(-c2nc(-c3ccc(-n4ccnc4)nc3)no2)cc1C` came in with an RP-LC retention time of 857 s.

`CCOCCCNC(=O)CC1CCN(c2ccnc(OC)n2)CC1` yielded an RP-LC retention time of 574 s.

`CCS(=O)(=O)c1nc2ccc(NS(=O)(=O)c3c(C)c(C)cc(C)c3C)cc2s1` had an RP-LC retention time of 1020 s.

In turn, `COc1ccc(CN(C)Cc2cc(=O)n3ccc(C)cc3n2)cc1` registered an RP-LC retention time of 608 s.

As for `COC(=O)c1cnc2nc(C)ccc2c1Nc1ccc(F)cc1F`, the RP-LC retention time is 674 s.

For `Cc1ccc(NC(=O)C2CCCN(c3ncnc4c3oc3ccccc34)C2)cc1C` (centres undefined), the RP-LC retention time worked out at 868 s.

In the case of `COc1cc2[nH]c3c(SCC(=O)N4CCc5ccccc5C4)ncnc3c2cc1OC`, the RP-LC retention time amounted to 744 s.

The compound `Cc1cc(NC(=O)c2cc(Cl)sc2Cl)n(C(C)C)n1` had an RP-LC retention time of 810 s.

`Cc1noc(C)c1S(=O)(=O)N1CCC2(CC1)CC(Cc1ccc(F)cc1)CCO2` (centres undefined): the RP-LC retention time came out at 1150 s.

As for `Cc1nc2cc(N3CCCC(C(=O)Nc4ccc5c(c4)OCO5)C3)cnc2nc1C` (centres undefined), the RP-LC retention time is 695 s.

In the case of `O=C(Cc1cccc2ccccc12)NCCOc1ccc(F)cc1`, the RP-LC retention time stood at 860 s.

Compound `CCC(C)(C)NC(=O)Cn1nc(C)c2nn(-c3ccccc3)c(C)c2c1=O` displayed an RP-LC retention time of 860 s.

In turn, `CCC(CO)Nc1nc2ccc(Cl)cc2c2ccccc12` (centres undefined) displayed an RP-LC retention time of 732 s.

In the case of `CCCCOC(=O)Cn1c(=O)c2c(nc3n2CCCCN3c2ccc(OCC)cc2)n(C)c1=O`, the RP-LC retention time came to 1100 s.

`CCN(CC)CCNC(=O)c1cn(C)nc1S(=O)(=O)N1CCN(c2ccc(Cl)cc2)CC1` came in with an RP-LC retention time of 707 s.

`Cn1cc(SCC(=O)N2CCCc3ccccc32)c2ccccc21` displayed an RP-LC retention time of 942 s.

`CC1CN(C(=O)C2CCN(S(=O)(=O)c3cccnc3)CC2)c2ccccc2O1` (centres undefined) came in with an RP-LC retention time of 825 s.

With `CCCc1noc(-c2ccnc(-n3cnc(C(=O)N4CCSCC4)c3)c2)n1`, the RP-LC retention time stood at 873 s.

`Cc1ccnc(C(=O)Nc2cccc(Cl)c2Cl)n1` had an RP-LC retention time of 866 s.

`CC(C)c1ccc(S(=O)(=O)N2CCCC2c2nc(-c3ccc(F)cc3)no2)cc1` (centres undefined) came in with an RP-LC retention time of 1260 s.

`CCCN(C)C[C@@H]1CC(F)(F)CN1C1CCN(S(=O)(=O)c2ccccc2C)CC1`: the RP-LC retention time came to 620 s.

`COc1ccc(OC)c2sc(NC(=O)c3cc(C)on3)nc12` yielded an RP-LC retention time of 748 s.

In turn, `COC(=O)c1ncn2c1C(=O)N(Cc1ccccc1)C(C)(C(=O)NC1CCCCC1)C2` (centres undefined) showed an RP-LC retention time of 750 s.

`COC(=O)c1sc2ccccc2c1S(=O)(=O)N1CCC(C(N)=O)(N2CCCCC2)CC1`: the RP-LC retention time came out at 652 s.

`Cc1ccc(Nc2c(-c3ccc(O)cc3)nc3ncccn23)c(C)c1`: the RP-LC retention time amounted to 719 s.

Take `O=C(NCCc1cccs1)C1CCN(S(=O)(=O)c2ccc(-c3noc(C4CC4)n3)cc2)CC1`: the RP-LC retention time stood at 946 s.

The compound `Cc1cc(C)cc(N2C(=O)CN(S(C)(=O)=O)CC2(C)C(=O)NCc2ccccc2)c1` (centres undefined) yielded an RP-LC retention time of 851 s.

With `CCCNc1cc(N2CCC(CCC(=O)NCc3cccc(Cl)c3)CC2)ncn1`, the RP-LC retention time was determined as 718 s.

The compound `O=C(Cn1cccc(-c2nc(-c3ccc(F)cc3)no2)c1=O)Nc1ccc2c(c1)OCO2` showed an RP-LC retention time of 850 s.

With `CCc1nc(OCC(=O)Nc2ccc(Cl)cc2Cl)c2ccccc2n1`, the RP-LC retention time is 937 s.

Compound `CCCNc1cc(N2CCC(CCC(=O)Nc3ccc(OC)c(OC)c3)CC2)ncn1` gave an RP-LC retention time of 648 s.

As for `CCc1nc(OCC(=O)Nc2ccc(Cl)c(Cl)c2)c2ccccc2n1`, the RP-LC retention time turned out to be 958 s.

`CN1C(=O)CCC2(CNC(=O)c3ccnn3C)CCC=C12` (centres undefined) had an RP-LC retention time of 639 s.

On to `O=S(=O)(c1cccc(F)c1)N1CCC(Cc2nncn2-c2ccccc2)C1` (centres undefined), for which the RP-LC retention time stood at 752 s.

Turning to `O=C(NCc1ccc(N2CCOCC2)cc1)C1CCCN(c2nccnc2Sc2ccccc2)C1` (centres undefined), the RP-LC retention time came out at 933 s.

`COCCN1CCn2cc(S(=O)(=O)Nc3ccc(C)cc3)cc2C1=O` registered an RP-LC retention time of 715 s.

Compound `O=C(Cn1ccc2ccccc21)NCc1c(F)cccc1F` displayed an RP-LC retention time of 826 s.

The compound `Cc1cccc(-c2nocc2CCC(=O)NCc2ccccc2)c1` gave an RP-LC retention time of 907 s.

Compound `CN1CCCc2cc(C(CNC(=O)C(=O)NCc3ccccc3)N3CCCCC3)ccc21` (centres undefined) gave an RP-LC retention time of 746 s.

In turn, `O=C(CC1CCCCC1)N1CCN(c2nc(CN3CCCCC3)cs2)CC1` registered an RP-LC retention time of 675 s.

The compound `CCOC(=O)c1nc(Nc2ccc(C(=O)OCC(C)C)cc2)c2ccccc2n1` displayed an RP-LC retention time of 1090 s.

For the compound `COc1ccc(Cl)cc1S(=O)(=O)N1CCC(c2noc(-c3ccccc3)n2)CC1`, the RP-LC retention time worked out at 1130 s.

For the compound `O=C(NCC1CCCO1)c1ccc2nc(CCc3ccccc3)oc2c1` (centres undefined), the RP-LC retention time amounted to 840 s.

On to `Cc1nn(-c2ccc(Cl)nn2)c(C)c1Cl`, for which the RP-LC retention time came to 996 s.

The compound `COc1cccc(CNC(=O)N2CCCCC2c2nncn2C)c1` (centres undefined) yielded an RP-LC retention time of 625 s.

In turn, `Cc1ccc(C(=O)Nc2nc(-c3ccccc3)cs2)o1` had an RP-LC retention time of 973 s.

Take `O=C(Cn1nc(S(=O)(=O)c2cccc(F)c2)ccc1=O)N1CCN(c2ccc(F)cc2)CC1`: the RP-LC retention time was 882 s.

Compound `CC1CC(=O)c2cnc(N3CCN(c4ccc(F)cc4)CC3)nc2C1` (centres undefined) showed an RP-LC retention time of 1080 s.

`CCCNC(=O)Cn1c(CC)nc2c(c1=O)CN(Cc1ccccc1)CC2` came in with an RP-LC retention time of 589 s.

For the compound `CC(C)CC(=O)N1CCCC(c2nc(CCNC(=O)C3CCC3)cs2)C1` (centres undefined), the RP-LC retention time was found to be 734 s.

`O=C(NCc1ccccn1)C1CCN(C(=O)c2ncn3c2COC(c2ccc(F)cc2)C3)CC1` (centres undefined) displayed an RP-LC retention time of 622 s.

Compound `CCc1noc(NC(C)=O)c1-c1ccc(C)c(S(=O)(=O)NC2CCCCCCC2)c1` came in with an RP-LC retention time of 959 s.

In turn, `O=C(CC1CCN(C(=O)c2ccc3nc(-c4ccccc4)oc3c2)CC1)NCC1CCCO1` (centres undefined) came in with an RP-LC retention time of 722 s.

Consider `Fc1ccc(-c2nc(-c3cn(Cc4ccccc4)nn3)no2)cc1`, for which the RP-LC retention time turned out to be 1090 s.

For the compound `Cc1nn(CC(=O)NC2CCCC2)c(=O)c2c(-n3cccc3)n(-c3cccc(F)c3)nc12`, the RP-LC retention time was 964 s.

Consider `CC(=O)Nc1c(C)noc1/C=C\c1ccc(C)c(S(=O)(=O)N2CCN(c3ccccn3)CC2)c1`, for which the RP-LC retention time was determined as 666 s.

`COc1cc(=O)n(-c2ccccc2C)nc1C(=O)Nc1ccc(OC(F)(F)F)cc1`: the RP-LC retention time turned out to be 880 s.

With `CCC1=C(C(=O)Nc2ccccc2)C2CCCC3(C2)NCCCN13` (centres undefined), the RP-LC retention time came out at 611 s.

`COC(=O)c1c(C)[nH]c(C(=O)N2CCC(CC(=O)NCc3ccc(OC)cc3)CC2)c1C`: the RP-LC retention time came to 715 s.

The compound `Cc1nc(-c2ccncc2)nc2c1CCC(=O)N2C1CCCCC1` returned an RP-LC retention time of 851 s.

The values are drawn from the METLIN SMRT retention time set (Domingo-Almenara et al. 2019).
